Several values for one entry are separate records, joined by “and”; a condition that tells them apart may be missing. Equal entries are not always repeated.
Tests used:
suppurative hidradenitis [1] = settings: cited from earlier work
suppurative hidradenitis [2] = settings: oral; open study on 80 patients; cited from earlier work
suppurative hidradenitis [3] = assay: clinical observation of oral zinc gluconate in 20 patients with suppurative hidradenitis; type: in vivo, human; design: key to Rep (response of the individual patient): CR: complete remission; PR: partial remission
Description: The efficacy of zinc gluconate in the treatment of suppurative hidradenitis was verified by the clinical observation performed on 20 patients, 16 of whom were monitored for a period of up to 24 months.
20 patients, 14 women and 6 men, from 23 to 72 years old, whose history of the disease ranged from 6 to 13 years, were placed on 90 mg of zinc gluconate per day for a period of a few months to 3 years.
In 34% of the cases, the location of the lesions was inguinal, axillary in 24% of the cases, and on the buttocks in 17% of the cases. The other affected regions in 5% to 7% of the cases were the chest, the pubis or the perineum.
“Dose 1” is the dose administered at the start of the treatment. “Dose 2” is the maintenance dose. The medical monitoring was generally from 4 to 8 months, and in a few cases it was extended beyond 12 months.

[4] = tolerance to oral zinc gluconate doses; type: in vivo, human; settings: for example 90 mg/day
[5] = Vidal monograph, overdose section; cited from earlier work
[6] = of 20 patients, 90 mg zinc gluconate per day, monitoring for several months

CC(=O)O[C@]1(C(C)=O)CC[C@H]2[C@@H]3C=C(Cl)C4=CC(=O)[C@@H]5C[C@@H]5[C@]4(C)[C@H]3CC[C@@]21C [cyproterone acetate]
efficacy (suppurative hidradenitis [1]; 100 mg/day of cyproterone acetate, small number of patients): efficacy only at large doses | outcome on dose reduction (suppurative hidradenitis [1]; dose reduced to 50 mg): recurrence

CC1=C(/C=C/C(C)=C/C=C/C(C)=C\C(=O)O)C(C)(C)CCC1 [isotretinoin]
results of treatment (suppurative hidradenitis [2]): very mediocre results

zinc gluconate
patients for whom the treatment proved to be ineffective (suppurative hidradenitis [3]; of 20 patients, 90 mg zinc gluconate per day): one | patients showing a full remission of the disease (suppurative hidradenitis [3]; [6]): 9 patients | patients showing a full remission of the disease (percentage) (suppurative hidradenitis [3]; [6]): 45% | patients showing a partial remission (suppurative hidradenitis [3]; [6]): 6 patients | patients showing a partial remission (percentage) (suppurative hidradenitis [3]; [6]): 30% | efficacy in the treatment of suppurative hidradenitis (suppurative hidradenitis [3]; oral, 60 to 120 mg per day attack treatment, 15 to 90 mg per day maintenance treatment): satisfactory efficacy | Rep (response of the individual patient) (suppurative hidradenitis [3]; patient (No. 1-20), oral, Dose 1 60-120 mg/day at start, Dose 2 maintenance, monitoring 3 to >12 months): PR (6×) and CR (9×) and ineff. | observed side effects [4]: only digestive | systemic toxicity [4]: no systemic toxicity to be feared | tolerance ([4]; i.e. 6 gel capsules containing a 15 mg dose): usually good | probability of an acute intoxication [5]: zero

— patent US20090215889A1, “Novel Use of Zinc Gluconate for Treating Hydradenitis Suppurativa” (LABCATAL, priority 2005, published 2009)
